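Cells were grown in 96-well plates and exposed to each compound for 48 hours at five concentrations; endpoints were interpolated linearly between bracketing concentrations, or set to the highest concentration if not reached. GI50 = concentration required for 50% inhibition of growth.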 Calls of active or inactive are those of the source. No stated cut-off is given here; in the data, active = GI50 up to about 1.1 µM and inactive = higher.
Assays:
Test in all cases: DTP human tumour cell line panel, 48 h
786-0 = system: 786-0
A549 = system: A549
ACHN = system: ACHN
CAKI-1 = system: CAKI-1
CCRF-CEM = system: CCRF-CEM
COLO 205 = system: COLO 205
DLD-1 = system: DLD-1
DMS-273 = system: DMS-273
HCC 2998 = system: HCC 2998
HCT-116 = system: HCT-116
HCT-15 = system: HCT-15
HL-60 = system: HL-60
HOP-62 = system: HOP-62
HOP-92 = system: HOP-92
HT-29 = system: HT-29
IGROV-1 = system: IGROV-1
K562 = system: K562
KM-20L2 = system: KM-20L2
KM12 = system: KM12
LOX IMVI = system: LOX IMVI
LXFL 529 = system: LXFL 529
M14 = system: M14
M19-MEL = system: M19-MEL
MOLT-4 = system: MOLT-4
Malme-3M = system: Malme-3M
NCI-H226 = system: NCI-H226
NCI-H23 = system: NCI-H23
NCI-H460 = system: NCI-H460
NCI-H522 = system: NCI-H522
OVCAR-3 = system: OVCAR-3
OVCAR-4 = system: OVCAR-4
OVCAR-5 = system: OVCAR-5
OVCAR-8 = system: OVCAR-8
RPMI-8226 = system: RPMI-8226
RXF 393 = system: RXF 393
RXF 631 = system: RXF 631
SF-268 = system: SF-268
SF-295 = system: SF-295
SF-539 = system: SF-539
SK-MEL-28 = system: SK-MEL-28
SK-MEL-5 = system: SK-MEL-5
SK-OV-3 = system: SK-OV-3
SN12C = system: SN12C
SNB-19 = system: SNB-19
SNB-75 = system: SNB-75
SNB-78 = system: SNB-78
SR = system: SR
SW-620 = system: SW-620
TK-10 = system: TK-10
U-251 = system: U-251
UACC-257 = system: UACC-257
UACC-62 = system: UACC-62
UO-31 = system: UO-31
XF498 = system: XF498
A498 = system: A498
DMS-114 = system: DMS-114
EKVX = system: EKVX
SK-MEL-2 = system: SK-MEL-2

## C[Si](C)(C)c1ccc(-c2sc(-c3ccc([Si](C)(C)C)s3)c3c2C[Si]2(C3)Cc3c(-c4ccc([Si](C)(C)C)s4)sc(-c4ccc([Si](C)(C)C)s4)c3C2)s1
786-0
  GI50: > 100 µM (inactive)
A549
  GI50: > 100 µM (inactive)
ACHN
  GI50: > 100 µM (inactive)
CAKI-1
  GI50: > 100 µM (inactive)
CCRF-CEM
  GI50: > 100 µM (inactive)
COLO 205
  GI50: > 100 µM (inactive)
DLD-1
  GI50: > 100 µM (inactive)
DMS-273
  GI50: > 100 µM (inactive)
HCC 2998
  GI50: > 100 µM (inactive)
HCT-116
  GI50: > 100 µM (inactive)
HCT-15
  GI50: > 100 µM
HL-60
  GI50: > 100 µM (inactive)
HOP-62
  GI50: > 100 µM (inactive)
HOP-92
  GI50: > 100 µM (inactive)
HT-29
  GI50: > 100 µM (inactive)
IGROV-1
  GI50: > 100 µM (inactive)
K562
  GI50: > 100 µM (inactive)
KM-20L2
  GI50: > 100 µM (inactive)
KM12
  GI50: > 100 µM (inactive)
LOX IMVI
  GI50: > 100 µM (inactive)
LXFL 529
  GI50: > 100 µM (inactive)
M14
  GI50: > 100 µM (inactive)
M19-MEL
  GI50: > 100 µM (inactive)
MOLT-4
  GI50: > 100 µM (inactive)
Malme-3M
  GI50: > 100 µM (inactive)
NCI-H226
  GI50: > 100 µM (inactive)
NCI-H23
  GI50: > 100 µM (inactive)
NCI-H460
  GI50: > 100 µM (inactive)
NCI-H522
  GI50: > 100 µM (inactive)
OVCAR-3
  GI50: > 100 µM (inactive)
OVCAR-4
  GI50: > 100 µM (inactive)
OVCAR-5
  GI50: > 100 µM (inactive)
OVCAR-8
  GI50: > 100 µM (inactive)
RPMI-8226
  GI50: > 100 µM (inactive)
RXF 393
  GI50: > 100 µM (inactive)
RXF 631
  GI50: > 100 µM (inactive)
SF-268
  GI50: > 100 µM (inactive)
SF-295
  GI50: > 100 µM (inactive)
SF-539
  GI50: > 100 µM (inactive)
SK-MEL-28
  GI50: > 100 µM (inactive)
SK-MEL-5
  GI50: > 100 µM (inactive)
SK-OV-3
  GI50: > 100 µM (inactive)
SN12C
  GI50: > 100 µM (inactive)
SNB-19
  GI50: > 100 µM (inactive)
SNB-75
  GI50: 24.9 µM (inactive)
SNB-78
  GI50: > 100 µM (inactive)
SR
  GI50: > 100 µM (inactive)
SW-620
  GI50: > 100 µM (inactive)
TK-10
  GI50: > 100 µM (inactive)
U-251
  GI50: > 100 µM (inactive)
UACC-257
  GI50: > 100 µM (inactive)
UACC-62
  GI50: > 100 µM (inactive)
UO-31
  GI50: > 100 µM (inactive)
XF498
  GI50: > 100 µM (inactive)

## COc1ccc2cc3[n+](cc2c1OC)CCc1cc(O)c(O)cc1-3
786-0
  GI50: > 100 µM (inactive)
A498
  GI50: > 100 µM (inactive)
A549
  GI50: > 100 µM (inactive)
CAKI-1
  GI50: > 100 µM (inactive)
CCRF-CEM
  GI50: > 100 µM (inactive)
COLO 205
  GI50: > 100 µM (inactive)
DLD-1
  GI50: > 100 µM (inactive)
DMS-114
  GI50: > 100 µM (inactive)
DMS-273
  GI50: > 100 µM (inactive)
EKVX
  GI50: > 100 µM (inactive)
HCT-116
  GI50: > 100 µM (inactive)
HCT-15
  GI50: > 100 µM
HL-60
  GI50: > 100 µM (inactive)
HOP-62
  GI50: > 100 µM (inactive)
HOP-92
  GI50: > 100 µM (inactive)
HT-29
  GI50: > 100 µM (inactive)
IGROV-1
  GI50: > 100 µM (inactive)
K562
  GI50: > 100 µM (inactive)
KM-20L2
  GI50: > 100 µM (inactive)
KM12
  GI50: > 100 µM (inactive)
LOX IMVI
  GI50: > 100 µM (inactive)
LXFL 529
  GI50: > 100 µM (inactive)
M14
  GI50: > 100 µM (inactive)
M19-MEL
  GI50: > 100 µM (inactive)
MOLT-4
  GI50: > 100 µM (inactive)
Malme-3M
  GI50: > 100 µM (inactive)
NCI-H226
  GI50: > 100 µM (inactive)
NCI-H23
  GI50: > 100 µM (inactive)
NCI-H460
  GI50: > 100 µM (inactive)
NCI-H522
  GI50: > 100 µM (inactive)
OVCAR-3
  GI50: > 100 µM (inactive)
OVCAR-4
  GI50: > 100 µM (inactive)
OVCAR-5
  GI50: > 100 µM (inactive)
OVCAR-8
  GI50: > 100 µM (inactive)
RPMI-8226
  GI50: > 100 µM (inactive)
RXF 393
  GI50: > 100 µM (inactive)
RXF 631
  GI50: > 100 µM (inactive)
SF-268
  GI50: > 100 µM (inactive)
SF-295
  GI50: > 100 µM (inactive)
SF-539
  GI50: > 100 µM (inactive)
SK-MEL-5
  GI50: > 100 µM (inactive)
SK-OV-3
  GI50: > 100 µM (inactive)
SN12C
  GI50: > 100 µM (inactive)
SNB-19
  GI50: > 100 µM (inactive)
SNB-75
  GI50: > 100 µM (inactive)
SNB-78
  GI50: > 100 µM (inactive)
SW-620
  GI50: > 100 µM (inactive)
TK-10
  GI50: > 100 µM (inactive)
U-251
  GI50: > 100 µM (inactive)
UACC-257
  GI50: > 100 µM (inactive)
UACC-62
  GI50: > 100 µM (inactive)
UO-31
  GI50: > 100 µM (inactive)
XF498
  GI50: > 100 µM (inactive)

## O=C(NCCCCCCNC(=O)OCCSCCn1cc(C(=O)NC(=O)OCc2ccccc2)c(=O)[nH]c1=O)OCCSCCn1cc(C(=O)NC(=O)OCc2ccccc2)c(=O)[nH]c1=O
786-0
  GI50: > 100 µM (inactive)
A498
  GI50: > 100 µM (inactive)
A549
  GI50: > 100 µM (inactive)
ACHN
  GI50: > 100 µM (inactive)
CAKI-1
  GI50: > 100 µM (inactive)
CCRF-CEM
  GI50: > 100 µM (inactive)
COLO 205
  GI50: > 100 µM (inactive)
DLD-1
  GI50: > 100 µM (inactive)
DMS-114
  GI50: > 100 µM (inactive)
DMS-273
  GI50: > 100 µM (inactive)
EKVX
  GI50: > 100 µM (inactive)
HCC 2998
  GI50: > 100 µM (inactive)
HCT-15
  GI50: > 100 µM
HOP-62
  GI50: > 100 µM (inactive)
HOP-92
  GI50: 32.1 µM (inactive)
HT-29
  GI50: > 100 µM (inactive)
IGROV-1
  GI50: > 100 µM (inactive)
K562
  GI50: > 100 µM (inactive)
KM-20L2
  GI50: > 100 µM (inactive)
KM12
  GI50: > 100 µM (inactive)
LOX IMVI
  GI50: > 100 µM (inactive)
LXFL 529
  GI50: > 100 µM (inactive)
M14
  GI50: > 100 µM (inactive)
M19-MEL
  GI50: > 100 µM (inactive)
MOLT-4
  GI50: > 100 µM (inactive)
Malme-3M
  GI50: > 100 µM (inactive)
NCI-H226
  GI50: > 100 µM (inactive)
NCI-H23
  GI50: > 100 µM (inactive)
NCI-H460
  GI50: > 100 µM (inactive)
NCI-H522
  GI50: > 100 µM (inactive)
OVCAR-3
  GI50: > 100 µM (inactive)
OVCAR-4
  GI50: > 100 µM (inactive)
OVCAR-5
  GI50: > 100 µM (inactive)
OVCAR-8
  GI50: > 100 µM (inactive)
RPMI-8226
  GI50: > 100 µM (inactive)
RXF 393
  GI50: 45.5 µM (inactive)
RXF 631
  GI50: > 100 µM (inactive)
SF-295
  GI50: > 100 µM (inactive)
SK-MEL-2
  GI50: > 100 µM (inactive)
SK-MEL-5
  GI50: > 100 µM (inactive)
SN12C
  GI50: > 100 µM (inactive)
SNB-19
  GI50: > 100 µM (inactive)
SNB-78
  GI50: > 100 µM (inactive)
SW-620
  GI50: > 100 µM (inactive)
TK-10
  GI50: > 100 µM (inactive)
U-251
  GI50: > 100 µM (inactive)
UACC-257
  GI50: > 100 µM (inactive)
UACC-62
  GI50: > 100 µM (inactive)
UO-31
  GI50: 55.8 µM (inactive)
XF498
  GI50: > 100 µM (inactive)

Source: ChEMBL document CHEMBL1201862, “PubChem BioAssay data set” (2004)
